Measured values published in patent US8481525B2, “Kinase inhibitors and method of treating cancer with same” (University of Health Network, priority 2009, dated 2013).
Read-outs that look alike come from different tables or passages of the source.

Key:
Aurora A = target: T1, Aurora A (Homo sapiens, UniProt O14965); assay: Aurora A Inhibition Assay (Z-Lyte); format: biochemical; conditions: read-out: Aurora A relative inhibition percentage at a dose of 1 μM
T1 construct: purchased Invitrogen PV3612
T1 sequence (O14965 1-403): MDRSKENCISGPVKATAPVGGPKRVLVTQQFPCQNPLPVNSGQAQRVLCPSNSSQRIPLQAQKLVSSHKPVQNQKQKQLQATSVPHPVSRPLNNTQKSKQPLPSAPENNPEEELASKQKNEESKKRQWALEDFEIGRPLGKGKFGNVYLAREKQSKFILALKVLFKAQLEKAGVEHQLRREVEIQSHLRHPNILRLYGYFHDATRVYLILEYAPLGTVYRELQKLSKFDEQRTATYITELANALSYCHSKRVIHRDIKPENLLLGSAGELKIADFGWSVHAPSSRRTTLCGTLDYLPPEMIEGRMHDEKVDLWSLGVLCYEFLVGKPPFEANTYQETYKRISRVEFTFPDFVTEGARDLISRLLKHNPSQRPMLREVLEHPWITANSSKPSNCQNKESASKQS
Description: Aurora A inhibition was determined using the Z-Lyte assay kit from Invitrogen. The assay was performed using the recommended manufacturer's instructions with 20 μM ATP and 12 nM Aurora A (Invitrogen cat # PV3612). The % inhibition values were determined according to the manufacturer's directions and IC50 values were obtained using a non-linear 4 point logistic curve fit (XLfit4, IDBS)

[1] = system: MCF-7 luminal breast cancer cell line; assay: Cell growth inhibition, Sulforhodamine B assay (SRB); format: cell-based; conditions: Homo sapiens, MCF7, 120 h, 5 days culture, SRB
Description: (§1) The cells were cultured for 5 days before the Sulforhodamine B assay (SRB) was performed to determine the compound's cell growth inhibition activity.
(§2) Sulforhodamine B (purchased from Sigma, Oakville, ON, Canada) is a water-soluble dye that binds to the basic amino acids of the cellular proteins. Thus, colorimetric measurement of the bound dye provides an estimate of the total protein mass that is related to the cell number. the cells are fixed in situ by gently aspirating off the culture media and adding 50 μl ice cold 10% Trichloroacetic Acid (TCA) per well and incubate at 4° C. for 30-60 min, The plates are washed with water five times and allowed to air dry for 5 min. […] Following staining, plates are washed four times with 1% acetic acid to remove unbound dye and then allowed to air dry for 5 min. […] Absorbance is read at 570 nm.
(§3) The percentage (%) of relative growth inhibition was calculated by comparing to DMSO treated only cells (100%). GI50's were determined for compounds with cytotoxic activity. The GI50 was calculated using GraphPad PRISM software (GraphPad Software, Inc., San Diego, Calif., USA).

[2] = system: A549 lung cancer cell line; assay: as above; format: cell-based; conditions: Homo sapiens, read-out: Cell Line GI50 Range A-549
Description: as §1, §2, §3

[3] = system: HCC1954 basal breast cancer cell line; assay: as above; format: cell-based; conditions: Homo sapiens, read-out: Cell Line GI50 Range HCC-1954
Description: as §1, §2, §3

[4] = system: SW620 colon cancer cell line; assay: as above; format: cell-based; conditions: Homo sapiens, SW-620, 120 h, 5 days culture, SRB
Description: as §1, §2, §3

[5] = system: MDA-MB-468 basal breast cancer cell line; assay: as above; format: cell-based; conditions: Homo sapiens, read-out: Cell Line GI50 Range MDA-MB-468
Description: as §1, §2, §3

human PLK4 = target: T2, human PLK4 (Homo sapiens, UniProt O00444); assay: PLK4 Inhibition Assay (indirect ELISA); format: biochemical; conditions: 15 μM ATP; read-out: PLK4 IC50 Ranges
T2 construct: amino terminal GST fusion of residues 1-391 of human PLK4; made in house; host or cells: E. coli
T2 sequence (O00444 1-391): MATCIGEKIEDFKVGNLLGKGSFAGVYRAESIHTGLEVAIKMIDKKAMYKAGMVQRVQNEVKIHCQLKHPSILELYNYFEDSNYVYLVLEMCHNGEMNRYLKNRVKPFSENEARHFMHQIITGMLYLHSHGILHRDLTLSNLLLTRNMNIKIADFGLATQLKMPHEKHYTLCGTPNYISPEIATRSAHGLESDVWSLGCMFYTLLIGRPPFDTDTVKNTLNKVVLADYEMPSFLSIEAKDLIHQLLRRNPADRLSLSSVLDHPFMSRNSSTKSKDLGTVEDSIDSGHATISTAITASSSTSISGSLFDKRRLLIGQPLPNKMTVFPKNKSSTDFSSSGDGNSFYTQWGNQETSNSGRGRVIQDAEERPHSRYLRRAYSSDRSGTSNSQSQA
Description: The protein was purified from clarified cell extracts after induction at 15° C. overnight using glutathione sepharose, gel permeation chromatography, and ion exchange (Resource Q). The resulting protein was dephosphorylated with lambda phosphatase (NEB cat# P0753), and resolved from the phosphatase using gluthione sepharose. The dephosphorylated GST-PLK4 was stored in aliquots at −80° C. until use.
PLK4 activity was measured using an indirect ELISA detection system. […] The colourimetric reaction was allowed to continue for 5 minutes, followed by addition of stop solution (0.5 N sulphuric acid), and quantified by detection at 450 nm with either a monochromatic or filter based plate reader (Molecular Devices M5 or Beckman DTX880, respectively).
Compounds were pre-incubated in the presence of enzyme for 15 minutes prior to addition of ATP and the activity remaining quantified using the above described activity assay. […] The IC50 value was determined using a non-linear 4 point logistic curve fit (XLfit4, IDBS) with the formula; (A+(B/(1+((x/C){grave over ( )}D)))), where A=background value, B=range, C=inflection point, D=curve fit parameter.

[6] = MCF-7 luminal breast cancer cell line, read-out: Cell Line GI50 Range MCF-7
[7] = 120 h, A549 lung cancer cell line, 5 days culture, SRB
[8] = HCC1954, 120 h, HCC1954 basal breast cancer cell line, 5 days culture, SRB
[9] = SW620 colon cancer cell line, read-out: Cell Line GI50 Range SW-620
[10] = 120 h, MDA-MB-468 basal breast cancer cell line, 5 days culture, SRB
[11] = 120 h, HCC1954 basal breast cancer cell line, 5 days culture, SRB

GI50 [1, 6] [µM] | GI50 [2, 7] [µM] | GI50 [4, 9] [µM] | GI50 [5, 10] [µM] | SMILES | inhibition at 1 µM (Aurora A; 1 μM compound, 20 μM ATP) [%] | further results
– | – | – | – | COc1ccc2c(c1)[C@@]1(C[C@@H]1c1ccc3c(/C=C/c4ccc(CN5CCOCC5)cc4)n[nH]c3c1)C(=O)N2 (racemic) [Example A41, (1R*,2S*)-(E)-5′-methoxy-2-(3-(4-(morpholinomethyl)styryl)-1H-indazol-6-yl)spiro[cyclopropane-1,3′-indolin]-2′-one 2,2,2-trifluoroacetate] | > 50 | –
– | – | – | – | O=C1Nc2ccccc2[C@@]12C[C@@H]2c1ccc2c(/C=C/c3ccc(CN4CCCCC4)cc3)n[nH]c2c1 (racemic) [Example A57, (1R*,2S*)-(E)-2-(3-(4-(piperidin-1-ylmethyl)styryl)-1H-indazol-6-yl)spiro[cyclopropane-1,3′-indolin]-2′-one 2,2,2-trifluoroacetate] | > 50 | –
– | – | – | – | O=C1Nc2ccccc2[C@@]12C[C@@H]2c1ccc2c(/C=C/c3ccc(CN4CCCC4)cc3)n[nH]c2c1 (racemic) [Example A60, (1R*,2S*)-(E)-2-(3-(4-(pyrolidin-1-ylmethyl)styryl)-1H-indazol-6-yl)spiro[cyclopropane-1,3′-indolin]-2′-one 2,2,2-trifluoroacetate] | > 50 | –
< 0.1 | < 0.1 | < 0.1 | < 0.1 | COc1ccc2c(c1)[C@@]1(C[C@@H]1c1ccc3c(-c4ccc(N5CCN(C(C)C)CC5)cc4)n[nH]c3c1)C(=O)N2 (racemic) [Example A96, (1R*,2S*)-2-(3-(4-(4-isopropylpiperazin-1-yl)phenyl)-1H-indazol-6-yl)-5′-methoxyspiro[cyclopropane-1,3′-indolin]-2′-one] | < 50 | GI50 [3, 8]: 1 to 10 µM
– | – | – | – | CN1CCN(c2ccc(-c3n[nH]c4cc([C@@H]5C[C@@]56C(=O)Nc5ccc(C(F)(F)F)cc56)ccc34)cc2)CC1 (racemic) [Example A170, (1R*,2S*)-2-(3-(4-(4-methylpiperazin-1-yl)phenyl)-1H-indazol-6-yl)-5′-(trifluoromethyl)spiro[cyclopropane-1,3′-indolin]-2′-one 2,2,2-trifluoroacetate] | – | IC50 (human PLK4): 0.1 to 1 µM
< 0.1 | < 0.1 | < 0.1 | < 0.1 | COc1ccc2c(c1)[C@@]1(C[C@@H]1c1ccc3c(/C=C/c4ccc(N5CCN(C)CC5)cc4)n[nH]c3c1)C(=O)N2 (racemic) [Example A174, (1R*,2S*)-(E)-5′-methoxy-2-(3-(4-(4-methylpiperazin-1-yl)styryl)-1H-indazol-6-yl)spiro[cyclopropane-1,3′-indolin]-2′-one 2,2,2-trifluoroacetate] | – | GI50 [3, 11]: 0.1 to 1 µM
< 0.1 | < 0.1 | < 0.1 | < 0.1 | COc1ccc2c(c1)[C@@]1(C[C@@H]1c1ccc3c(/C=C/c4ccc(CCN5CCOCC5)cc4)n[nH]c3c1)C(=O)N2 (racemic) [Example A178, (1R*,2S*)-(E)-5′-methoxy-2-(3-(4-(2-morpholinoethyl)styryl)-1H-indazol-6-yl)spiro[cyclopropane-1,3′-indolin]-2′-one 2,2,2-trifluoroacetate] | – | GI50 [3, 8]: 0.1 to 1 µM
0.1 to 1 | < 0.1 | < 0.1 | < 0.1 | COc1ccc2c(c1)[C@@]1(C[C@@H]1c1ccc3c(/C=C/c4csc(CN5CCOCC5)c4)n[nH]c3c1)C(=O)N2 (racemic) [Example A184, (1R*,2S*)-5′-methoxy-2-(3-((E)-2-(5-(morpholinomethyl)thiophen-3-yl)vinyl)-1H-indazol-6-yl)spiro[cyclopropane-1,3′-indolin]-2′-one 2,2,2-trifluoroacetate] | > 50 | GI50 [3, 11]: > 10 µM
< 0.1 | < 0.1 | < 0.1 | < 0.1 | CCN1CCN(c2ccc(/C=C/c3n[nH]c4cc([C@@H]5C[C@@]56C(=O)Nc5ccc(OC)cc56)ccc34)cc2)CC1 (racemic) [Example A188, (1R*,2S*)-(E)-2-(3-(4-(4-ethylpiperazin-1-yl)styryl)-1H-indazol-6-yl)-5′-methoxyspiro[cyclopropane-1,3′-indolin]-2′-one 2,2,2-trifluoroacetate] | > 50 | GI50 [3, 11]: 0.1 to 1 µM
– | – | – | – | Cc1ccc2c(c1)[C@@]1(C[C@@H]1c1ccc3c(/C=C/c4ccc(CN5CCOCC5)cc4)n[nH]c3c1)C(=O)N2 (racemic) [Example A196, (1R*,2S*)-(E)-5′-methyl-2-(3-(4-(morpholinomethyl)styryl)-1H-indazol-6-yl)spiro[cyclopropane-1,3′-indolin]-2′-one 2,2,2-trifluoroacetate] | – | inhibition at 1 µM (Aurora A): > 50%
– | – | – | – | COc1ccc2c(c1)[C@@]1(C[C@@H]1c1ccc3c(/C=C/c4cc(F)c(CN5CCOCC5)c(F)c4)n[nH]c3c1)C(=O)N2 (racemic) [Example A217, (1R*,2S*)-(E)-2-(3-(3,5-difluoro-4-(morpholinomethyl)styryl-1H-indazol-6-yl)-5′-methoxyspiro[cyclopropane-1,3′-indolin]-2′-one 2,2,2-trifluoroacetate] | > 50 | –
– | – | – | – | O=C1Nc2ccccc2[C@]12C[C@H]2c1ccc2cn[nH]c2c1 (relative stereo) [Example A2, (1R*,2S*)-2-(1H-indazol-6-yl)spiro[cyclopropane-1,3′-indolin]-2′-one] | – | GI50 ([1]; read-out: Cell Line GI50 Range MCF-7, MCF-7 luminal breast cancer cell line): > 10 µM; GI50 ([2]; A549, 120 h): > 10 µM; GI50 ([3]; HCC1954, 120 h): > 10 µM; GI50 ([4]; read-out: Cell Line GI50 Range SW-620, SW620 colon cancer cell line): > 10 µM; GI50 ([5]; MDA-MB-468, 120 h): > 10 µM
– | – | – | – | COc1ccc2c(c1)[C@]1(C[C@@H]1c1ccc3c(-c4ccc(N5CCN(C)CC5)nc4)n[nH]c3c1)C(=O)N2 (relative stereo) [Example A17, (1R*,2R*)-5′-Methoxy-2-(3-(6-(4-methylpiperazin-1-yl)pyridin-3-yl)-1H-indazol-6-yl)spiro[cyclopropane-1,3′-indolin]-2′-one] | < 50 | –
